Source: the NIST ThermoML archive (doi:10.1021/acs.jced.5b00613)

Details: Liquid, Vibrating tube method

CCCCCCCCCC [decane]
mass density [kg/m3]
Details | 100 kPa | 1000 kPa | 5000 kPa | 10000 kPa | 20000 kPa | 30000 kPa | 40000 kPa | 50000 kPa | 60000 kPa
278.15 K | 741.6 | 742.2 | 745 | 748.3 | 754.4 | 760.1 | 765.4 | 770.4 | 775.3
298.15 K | 726.7 | 727.4 | 730.5 | 734.2 | 740.9 | 747.2 | 753 | 758.4 | 763.7
323.15 K | 707.4 | 708.4 | 711.9 | 716.2 | 724 | 731.1 | 737.5 | 743.5 | 749.2
348.15 K | 687.6 | 688.6 | 692.8 | 697.7 | 706.7 | 714.6 | 721.8 | 728.4 | 734.6
373.15 K | 667.1 | 668.8 | 673.8 | 679.6 | 689.8 | 698.8 | 706.8 | 714.1 | 720.8
423.15 K | 624.8 | 627.2 | 634.5 | 642.4 | 655.8 | 667.1 | 677 | 685.9 | 693.8
463.15 K | – | 590.4 | 600.3 | 610.8 | 627.8 | 641.4 | 653.1 | 663.3 | 672.1

CCCCCCCCCCCC [dodecane]
mass density [kg/m3]
Details | 100 kPa | 1000 kPa | 5000 kPa | 10000 kPa | 20000 kPa | 30000 kPa | 40000 kPa | 50000 kPa | 60000 kPa
278.15 K | 759.2 | 760.5 | 763.1 | 766.2 | 771.9 | 777.3 | 782.3 | 787.1 | 791.7
298.15 K | 745.6 | 746.2 | 749 | 752.4 | 758.7 | 764.7 | 770.1 | 775.3 | 780.2
323.15 K | 727.2 | 728.2 | 731.4 | 735.3 | 742.6 | 749.2 | 755.2 | 760.9 | 766.3
348.15 K | 708.7 | 709.6 | 713.4 | 717.8 | 726.1 | 733.5 | 740.2 | 746.4 | 752.3
373.15 K | – | 690.8 | 695.2 | 700.4 | 709.8 | 718.1 | 725.6 | 732.5 | 738.9
423.15 K | – | 652.6 | 658.7 | 665.6 | 677.6 | 688 | 697 | 705.3 | 712.8
463.15 K | – | – | 627.9 | 636.9 | 651.8 | 664.2 | 674.8 | 684.1 | 692.6

CCCCCCCCCCCCCCCC [hexadecane]
mass density [kg/m3]
Details | 100 kPa | 1000 kPa | 5000 kPa | 10000 kPa | 20000 kPa | 30000 kPa | 40000 kPa | 50000 kPa | 60000 kPa
298.15 K | 770.5 | 771.1 | 773.6 | 776.9 | 782.6 | 788.1 | – | – | –
323.15 K | 753.1 | 753.9 | 756.8 | 760.4 | 766.9 | 772.9 | 778.5 | 783.8 | 788.7
348.15 K | 735.6 | 736.5 | 739.8 | 743.8 | 751.1 | 757.8 | 763.9 | 769.7 | 775.1
373.15 K | 717.8 | 719.4 | 723.2 | 727.7 | 735.9 | 743.4 | 750.3 | 756.5 | 762.4
423.15 K | 680.8 | 684.1 | 689.2 | 695.1 | 705.5 | 714.7 | 722.9 | 730.4 | 737.2
463.15 K | 651.6 | 654.5 | 661 | 668.5 | 681.2 | 692 | 701.4 | 709.8 | 717.5

CCCCCC [hexane]
mass density [kg/m3]
Details | 100 kPa | 1000 kPa | 5000 kPa | 10000 kPa | 20000 kPa | 30000 kPa | 40000 kPa | 50000 kPa | 60000 kPa
278.15 K | 673.3 | 673.9 | 677.6 | 681.8 | 689.6 | 696.8 | 703.2 | 709.2 | 715
298.15 K | 656.1 | 655.9 | 660.1 | 665.1 | 673.9 | 681.9 | 689 | 695.5 | 701.7
323.15 K | 631.7 | 633.1 | 638.2 | 644.2 | 654.7 | 663.9 | 671.9 | 679.3 | 686.1
348.15 K | – | 608.5 | 614.9 | 622.1 | 634.6 | 645.2 | 654.4 | 662.6 | 670.2
373.15 K | – | 582.6 | 591 | 600 | 614.8 | 627 | 637.4 | 646.6 | 654.9
423.15 K | – | 521.2 | 536.9 | 551.5 | 573.2 | 589.7 | 603.2 | 614.6 | 624.8
463.15 K | – | – | 484.2 | 508.5 | 538.9 | 559.8 | 575.9 | 589.3 | 600.7
